The target in one assay is T1, human CHK1 (Homo sapiens, UniProt O14757).
T1 construct: C-terminally His-tagged full-length human CHK1 (FL-CHK1) was expressed using the baculovirus/insect cell system; made in house; host or cells: baculovirus/insect cells
T1 sequence (O14757 1-476): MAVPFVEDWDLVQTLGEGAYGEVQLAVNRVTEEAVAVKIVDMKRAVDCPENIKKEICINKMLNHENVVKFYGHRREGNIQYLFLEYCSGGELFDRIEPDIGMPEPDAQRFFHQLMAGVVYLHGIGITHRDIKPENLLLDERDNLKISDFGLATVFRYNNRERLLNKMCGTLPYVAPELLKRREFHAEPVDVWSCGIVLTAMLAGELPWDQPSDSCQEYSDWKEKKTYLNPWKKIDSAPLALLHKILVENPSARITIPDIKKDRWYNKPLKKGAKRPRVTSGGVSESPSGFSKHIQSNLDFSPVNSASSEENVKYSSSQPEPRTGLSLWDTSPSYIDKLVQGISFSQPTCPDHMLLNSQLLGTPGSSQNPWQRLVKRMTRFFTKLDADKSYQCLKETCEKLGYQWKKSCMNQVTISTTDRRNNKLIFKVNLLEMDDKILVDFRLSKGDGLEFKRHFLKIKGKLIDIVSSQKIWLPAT
The assay is described as follows: CHK1 Assay (coupled spectrophotometric). The class given is biochemical. The source says:
C-terminally His-tagged full-length human CHK1 (FL-CHK1) was expressed using the baculovirus/insect cell system. It contains 6 histidine residues (6×His-tag) at the C-terminus of the 476 amino acid human CHK1. The protein was purified by conventional chromatographic techniques.
The production of ADP from ATP that accompanies phosphoryl transfer to the synthetic substrate peptide Syntide-2 ([…]) was coupled to oxidation of NADH using phosphoenolpyruvate (PEP) through the actions of pyruvate kinase (PK) and lactic dehydrogenase (LDH). The oxidation of NADH was monitored by following the decrease of absorbance at 340 nm (ε340=6.22 cm^−1 mM^−1) using a HP8452 spectrophotometer. Typical reaction solutions contained: […]; 0.15 mM NADH; 28 units of LDH/ml; 16 units of PK/ml; 3 mM DTT; 0.125 mM Syntide-2; 0.15 mM ATP; 25 mM MgCl2 in 50 mM TRIS, pH 7.5; and 400 mM NaCl. Assays were initiated with 10 nM of FL-CHK1. Ki values were determined by measuring initial enzyme activity in the presence of varying concentrations of test compounds. The data were analyzed using Enzyme Kinetic and Kaleidagraph software.

Another assay relates to FAK. The assay can be described thus: Coupled Spectrophotometric (FAK) Assay. The class given is biochemical. As to the method: Coupled Spectrophotometric (FAK) Assay
Tyrosine kinase assays were monitored using a Beckman DU 650 Spectrophotometer. Production of ADP was coupled to oxidation of NADH using phosphoenolpyruvate (PEP) through the actions of pyruvate kinase (PK) and lactic dehydrogenase (LDH). The oxidation of NADH was monitored by following the decrease in absorbance at 340 nm (ε340=6.22 cm^−1 mM^−1). Typical reaction solutions contained: 1 mM PEP, 250 μM NADH, 50 units of LDH/mL, 20 units of PK/mL, 5 mM DTT, in 200 mM Hepes, pH 7.5 and varying concentrations of poly(E4Y1), ATP and MgCl2. Assays were initiated with 40 nM of […].

Structures are written as SMILES.

One may read the inhibition as the relative decrease from the control value, in per cent. As to `Cc1c(O)cccc1-c1ccc2[nH]nc(-c3nc4ccccc4[nH]3)c2c1` [10′, 3-[3-(1H-Benzoimidazol-2-yl)-1H-indazol-5-yl]-2-methyl-phenol], the inhibition at 10 µM at human CHK1 (read-out: CHK1 % inhibition @ 10 μM, at 10 μM) was 5%.

Regarding `Cc1c(O)cccc1-c1ccc2[nH]nc(/C=C/c3ccccc3)c2c1` [15′, 2-Methyl-3-[3-((E)-styryl)-1H-indazol-5-yl]-phenol], the inhibition at 1 µM at human CHK1 (read-out: CHK1 % inhibition at 1 μM) was 16%.

For the compound `Fc1ccccc1-c1ccc2[nH]nc(-c3nc4ccccc4[nH]3)c2c1` [Example 6, 3-(1H-Benzoimidazol-2-yl)-5-(2-fluorophenyl)-1H-Indazole], the inhibition at 20 µM against human CHK1 was 80%.

Broadly, the Ki is the dissociation constant of the complex between target and ligand, obtained from inhibition or displacement. Low values mean a stronger hold on the target, high ones a looser hold on the target. As to `C(=C\c1n[nH]c2ccc(-c3cncc4ccccc34)cc12)/c1ccccc1` [Example 16], the “FAK % Inhibition at 1 μM” value in the assay with FAK is 47%. The same compound gave an inhibition constant Ki on human CHK1 of 81 µM.

In turn, `c1ccc2[nH]c(-c3n[nH]c4ccc(-c5cccc6[nH]ccc56)cc34)nc2c1` [Example 48, 3-(1H-Benzoimidazol-2-yl)-5-(1H-indol-4-yl)-1H-indazole] came in with an inhibition constant (Ki) on human CHK1 of 7.82 µM.
